Measurements taken from patent US20060211676A1, “Crystalline anhydrous cefdinir and crystalline cefdinir hydrates” (priority 2004, published 2006).

Assay: Dynamic Moisture Sorption/Desorption Gravimetric (DMSG) analysis
Assay type: physicochemical
Settings: relative humidity from 50% to 90%
Experimental: Dynamic Moisture Sorption/Desorption Gravimetric (DMSG) analysis was performed for the cefdinir lower hydrates. A vacuum moisture balance (MB 300G, VTI Corporation) was used to study the moisture sorption and desoprtion. Samples were dried at 50° C. under vacuum to constant weight. Relative humidity was increased to 90% in 10% increments. If the sample weight remained unchanged (i.e. changed by less than about 3 mg/15 min), the moisture content was recorded. The balance was calibrated before the experiment and the accuracy of the relative humidity measurement was verified with polyvinylpyrrolidone K90. […] Sharp steps, for example with relative humidity changes from 40% to 50%, occur when the crystal undergoes a phase change (i.e. a crystalline structure change). […] Increases in the relative humidity from 10% to almost 40%, results in the formation of crystalline iso-structural hydrates. The cefdinir iso-structural hydrates varied but maintained the same crystalline structure and PXRD patterns (FIG. 6). An increase in the relative humidity from 40% to 50% caused a crystalline structure change, and further increase of relative humidity from 50% to 90% caused cefdinir trihemihydrate (having a water content of about 14%) to form. […] The weight changes are expressed by percentage of water content and by the calculated molar content of water.

water content: about 14%
Compound: C=CC1=C(C(=O)O)N2C(=O)[C@@H](NC(=O)/C(=N\O)c3csc(N)n3)[C@H]2SC1.C=CC1=C(C(=O)O)N2C(=O)[C@@H](NC(=O)/C(=N\O)c3csc(N)n3)[C@H]2SC1.O.O.O.O.O.O.O [cefdinir trihemihydrate, crystalline(6R-(6α,7β(Z)))-7-(((2-amino-1,3-thiazol-4-yl)(hydroxyimino)acetyl)amino)-3-ethenyl-8-oxo-5-thia-1-azabicyclo[4.2.0]oct-2-ene-2-carboxylic acid.3.5H2O]
